How the values were obtained:
[1] = biological target: High affinity nerve growth factor receptor (Homo sapiens, UniProt P04629); assay: Inhibition of TrkA (unknown origin) using Tyr1 peptide as substrate in presence of ATP measured after 2 hrs by FRET-based Z-Lyte kinase assay
[2] = biological target: BDNF/NT-3 growth factors receptor (Homo sapiens, UniProt Q16620); assay: Inhibition of TrkB (unknown origin) using Tyr1 peptide as substrate in presence of ATP measured after 2 hrs by FRET-based Z-Lyte kinase assay
BDNF/NT-3 growth factors receptor, sequence (Q16620 whole entry): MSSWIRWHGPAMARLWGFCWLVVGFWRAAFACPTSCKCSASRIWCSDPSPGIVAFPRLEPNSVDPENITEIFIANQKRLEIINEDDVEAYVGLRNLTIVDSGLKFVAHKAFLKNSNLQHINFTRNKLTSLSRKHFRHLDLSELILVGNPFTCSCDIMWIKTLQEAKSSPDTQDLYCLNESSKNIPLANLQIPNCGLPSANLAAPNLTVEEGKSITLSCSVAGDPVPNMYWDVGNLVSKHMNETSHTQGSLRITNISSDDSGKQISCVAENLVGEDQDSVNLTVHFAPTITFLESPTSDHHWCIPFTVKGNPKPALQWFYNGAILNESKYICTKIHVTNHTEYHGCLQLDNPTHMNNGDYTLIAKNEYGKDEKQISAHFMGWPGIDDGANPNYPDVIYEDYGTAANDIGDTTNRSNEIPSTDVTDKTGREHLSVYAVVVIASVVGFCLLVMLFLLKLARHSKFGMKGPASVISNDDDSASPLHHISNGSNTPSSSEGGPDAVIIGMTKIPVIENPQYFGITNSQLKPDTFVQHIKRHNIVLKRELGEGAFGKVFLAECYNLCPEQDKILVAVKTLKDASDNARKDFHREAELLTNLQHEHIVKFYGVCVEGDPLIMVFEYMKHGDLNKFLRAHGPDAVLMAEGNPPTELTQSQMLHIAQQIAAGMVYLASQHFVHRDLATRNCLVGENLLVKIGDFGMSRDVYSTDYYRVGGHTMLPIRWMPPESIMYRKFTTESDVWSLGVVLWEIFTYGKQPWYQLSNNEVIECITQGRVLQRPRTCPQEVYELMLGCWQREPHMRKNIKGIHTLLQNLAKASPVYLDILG

BaF3 [3] = assay: Antiproliferative activity against mouse BaF3 cells transfected with wild type CD74-NTRK1 (unknown origin) assessed as cell viability measured after 72 hrs by Micro plate reader method; settings: BaF3, 72 h
BaF3 [4] = assay: Antiproliferative activity against mouse BaF3 cells transfected with wild type ETV6-NTRK2 (unknown origin) assessed as cell viability measured after 72 hrs by Micro plate reader method; settings: BaF3, 72 h
BaF3 [5] = assay: Antiproliferative activity against mouse BaF3 cells transfected with wild type ETV6-NTRK3 (unknown origin) assessed as cell viability measured after 72 hrs by Micro plate reader method; settings: BaF3, 72 h
BaF3 [6] = assay: Antiproliferative activity against mouse BaF3 cells assessed as cell viability measured after 72 hrs by Micro plate reader method; assay type: functional, cell-based; settings: BaF3, 72 h
BaF3 [7] = assay: Antiproliferative activity against mouse BaF3 cells transfected with wild type ETV6-NTRK3 (unknown origin) harbouring G696A mutation assessed as cell viability measured after 72 hrs by Micro plate reader method; assay type: functional, cell-based; settings: BaF3, 72 h
BaF3 [8] = assay: Antiproliferative activity against mouse BaF3 cells transfected with wild type ETV6-NTRK2 (unknown origin) harbouring G639R mutation assessed as cell viability measured after 72 hrs by Micro plate reader method; assay type: functional, cell-based; settings: BaF3, 72 h
BaF3 [9] = assay: Antiproliferative activity against mouse BaF3 cells transfected with wild type CD74-NTRK1 (unknown origin) harbouring G667C mutation assessed as cell viability measured after 72 hrs by Micro plate reader method; assay type: functional, cell-based; settings: BaF3, 72 h
BaF3 [10] = assay: Antiproliferative activity against mouse BaF3 cells transfected with wild type ETV6-NTRK3 (unknown origin) harbouring G623R mutation assessed as cell viability measured after 72 hrs by Micro plate reader method; assay type: functional, cell-based; settings: BaF3, 72 h
BaF3 [11] = assay: Antiproliferative activity against mouse BaF3 cells transfected with wild type CD74-NTRK1 (unknown origin) harbouring G595R mutation assessed as cell viability measured after 72 hrs by Micro plate reader method; assay type: functional, cell-based; settings: BaF3, 72 h

High affinity nerve growth factor receptor, sequence (P04629 whole entry): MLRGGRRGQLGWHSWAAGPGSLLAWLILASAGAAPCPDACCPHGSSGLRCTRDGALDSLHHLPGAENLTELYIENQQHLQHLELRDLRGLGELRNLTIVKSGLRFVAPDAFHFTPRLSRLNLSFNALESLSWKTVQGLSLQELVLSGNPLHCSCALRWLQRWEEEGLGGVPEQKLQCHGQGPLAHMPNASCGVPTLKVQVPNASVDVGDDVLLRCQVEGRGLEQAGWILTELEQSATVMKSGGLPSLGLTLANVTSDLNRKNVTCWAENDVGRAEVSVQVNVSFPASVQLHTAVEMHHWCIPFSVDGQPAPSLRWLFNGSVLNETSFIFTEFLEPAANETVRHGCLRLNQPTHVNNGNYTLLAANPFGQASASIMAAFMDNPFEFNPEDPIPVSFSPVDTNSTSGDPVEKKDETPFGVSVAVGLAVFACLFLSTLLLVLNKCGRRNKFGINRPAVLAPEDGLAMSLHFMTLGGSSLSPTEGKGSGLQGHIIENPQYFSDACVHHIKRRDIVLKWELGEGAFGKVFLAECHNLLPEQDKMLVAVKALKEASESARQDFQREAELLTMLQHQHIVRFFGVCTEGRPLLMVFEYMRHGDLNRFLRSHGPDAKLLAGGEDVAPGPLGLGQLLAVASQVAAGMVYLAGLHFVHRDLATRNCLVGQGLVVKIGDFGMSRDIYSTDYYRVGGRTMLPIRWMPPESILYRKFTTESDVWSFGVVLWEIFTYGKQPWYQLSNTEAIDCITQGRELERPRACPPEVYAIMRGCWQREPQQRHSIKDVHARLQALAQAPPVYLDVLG

COc1cc(F)cc(CNc2ccc3[nH]nc(/C=C/c4ccccn4)c3c2)c1 showed an IC50 [1] of 0.0031 µM and an IC50 [2] of 0.0267 µM.
Work on Fc1cc(F)cc(Sc2ccc3[nH]nc(/C=C/c4ccccn4)c3c2)c1 yielded an IC50 [1] of 0.0239 µM and an IC50 [2] of 0.0048 µM.
C(=C\c1n[nH]c2ccc(NCc3ccccc3)cc12)/c1ccccn1 showed an IC50 [1] of 0.0106 µM and an IC50 [2] of 0.0011 µM.
For Fc1cc(F)cc(CCc2ccc3[nH]nc(/C=C/c4ccccn4)c3c2)c1, the IC50 [1] was 0.0037 µM and the IC50 [2] was 0.0085 µM.
In the case of CN(Cc1cc(F)cc(F)c1)c1ccc2[nH]nc(/C=C/c3ccccn3)c2c1, the IC50 [1] is reported as 0.029 µM and the IC50 [2] is reported as 0.008 µM.
Compound Fc1cc(F)cc(-c2ccc3[nH]nc(/C=C/c4ccccn4)c3c2)c1 has an IC50 [1] of 0.254 µM and an IC50 [2] of 0.729 µM.
Compound N#Cc1cc(F)cc(CNc2ccc3[nH]nc(/C=C/c4ccccn4)c3c2)c1 has an IC50 [1] of 0.0035 µM and an IC50 [2] of 0.0177 µM.
For Fc1cc(F)cc(Cc2ccc3[nH]nc(/C=C/c4ccccn4)c3c2)c1, the IC50 (BaF3 [3]) was 0.133 µM, the IC50 (BaF3 [4]) was 0.161 µM and the IC50 [1] was 0.0076 µM. For the same compound, the IC50 (BaF3 [5]) was 0.125 µM and the IC50 [2] was 0.0013 µM.
Work on Fc1cc(F)cc(CNc2ccc3[nH]nc(/C=C/c4ccccn4)c3c2)c1 yielded an IC50 (BaF3 [3]) of 0.035 µM, an IC50 (BaF3 [4]) of 0.034 µM and an IC50 [1] of 0.0015 µM. It also gave an IC50 (BaF3 [6]) of 0.489 µM, an IC50 (BaF3 [5]) of 0.014 µM and an IC50 [2] of 0.0083 µM.
Fc1cc(CNc2ccc3[nH]nc(/C=C/c4ccccn4)c3c2)cc(C(F)(F)F)c1 was tested, and the IC50 [1] was 0.0763 µM and the IC50 [2] was 0.245 µM.
Compound O=C(Nc1cc(F)cc(F)c1)c1ccc2[nH]nc(/C=C/c3ccccn3)c2c1 has an IC50 [1] greater than 1 µM and an IC50 [2] greater than 1 µM.
Fc1cc(Cl)cc(CNc2ccc3[nH]nc(/C=C/c4ccccn4)c3c2)c1 was tested, and the IC50 [1] was 0.002 µM and the IC50 [2] was 0.0154 µM.
Compound Cc1cc(F)cc(CNc2ccc3[nH]nc(/C=C/c4ccccn4)c3c2)c1 has an IC50 [1] of 0.0104 µM and an IC50 [2] of 0.0501 µM.
Compound Fc1cc(F)cc(NCc2ccc3[nH]nc(/C=C/c4ccccn4)c3c2)c1 has an IC50 [1] of 0.0104 µM and an IC50 [2] of 0.0035 µM.
With Fc1cc(F)cc(Oc2ccc3[nH]nc(/C=C/c4ccccn4)c3c2)c1 the IC50 [1] was 0.0233 µM and the IC50 [2] was 0.004 µM.
For Fc1ccc(CNc2ccc3[nH]nc(/C=C/c4ccccn4)c3c2)cc1, the IC50 [1] was 0.0493 µM and the IC50 [2] was 0.0789 µM.
With Fc1cc(F)cc(C#Cc2ccc3[nH]nc(/C=C/c4ccccn4)c3c2)c1 the IC50 [1] was greater than 1 µM and the IC50 [2] was greater than 1 µM.
Work on CN(Cc1ccc2[nH]nc(/C=C/c3ccccn3)c2c1)c1cc(F)cc(F)c1 yielded an IC50 [1] of 0.012 µM and an IC50 [2] of 0.0425 µM.
Fc1cc(Br)cc(CNc2ccc3[nH]nc(/C=C/c4ccccn4)c3c2)c1 gave an IC50 [1] of 0.0104 µM and an IC50 [2] of 0.0306 µM.
Work on Fc1cccc(CNc2ccc3[nH]nc(/C=C/c4ccccn4)c3c2)c1 yielded an IC50 [1] of 0.0057 µM and an IC50 [2] of 0.0049 µM.
With CN(c1cc(F)cc(F)c1)c1ccc2[nH]nc(/C=C/c3ccccn3)c2c1 the IC50 [1] was 0.0406 µM and the IC50 [2] was 0.0236 µM.
With Fc1ccccc1CNc1ccc2[nH]nc(/C=C/c3ccccn3)c2c1 the IC50 [1] was 0.0088 µM and the IC50 [2] was 0.0362 µM.
In the case of O=C(Nc1ccc2[nH]nc(/C=C/c3ccccn3)c2c1)c1cc(F)cc(F)c1, the IC50 [1] is reported as 0.189 µM and the IC50 [2] is reported as 0.244 µM.
Compound Fc1cc(F)cc(COc2ccc3[nH]nc(/C=C/c4ccccn4)c3c2)c1 has an IC50 (BaF3 [3]) of 0.133 µM, an IC50 (BaF3 [4]) of 0.169 µM and an IC50 [1] of 0.0132 µM. For the same compound, the IC50 (BaF3 [5]) was 0.118 µM and the IC50 [2] was 0.0012 µM.
In the case of Fc1cc(F)cc(OCc2ccc3[nH]nc(/C=C/c4ccccn4)c3c2)c1, the IC50 [1] is reported as 0.0209 µM and the IC50 [2] is reported as 0.0072 µM.
Fc1cc(F)cc(Nc2ccc3[nH]nc(/C=C/c4ccccn4)c3c2)c1 gave an IC50 [2] of 0.0307 µM.
O=C(Nc1cnn2ccc(N3CCC[C@@H]3c3cc(F)ccc3F)nc12)N1CC[C@H](O)C1 [LAROTRECTINIB] showed an IC50 (BaF3 [7]) of 0.054 µM, an IC50 (BaF3 [8]) of 2.24 µM and an IC50 (BaF3 [9]) of 0.184 µM. For the same compound, the IC50 (BaF3 [3]) was 0.016 µM, the IC50 (BaF3 [4]) was 0.04 µM and the IC50 (BaF3 [10]) was 1.2 µM. It also gave an IC50 (BaF3 [11]) of 0.539 µM, an IC50 (BaF3 [6]) greater than 10 µM and an IC50 (BaF3 [5]) of 0.013 µM.
